From patent US7776847B2, “Benzisothiazoles useful for treating or preventing HCV infection” (priority 2005, dated 2010) come the findings set out here.

For orientation: IC50 means the midpoint of a concentration-inhibition curve.

The structures appear in SMILES notation.

The subject of this assay is HCV replicon. The experiment in a line: HCV replicon luciferase reporter assay. In kind it is cell-based. The settings on record: Hepatitis C virus, Table 5; read-out: IC50. In outline: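 Replicon-bearing dividing cells seeded at 5,000–7,500 cells/well, grown 24 h at 37° C/5% CO2, then exposed to test compound at various concentrations for a further 24–48 h. Replication/translation read by luciferase reporter; IC50 taken as compound amount giving 50% reduction in luciferase activity.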
For `COc1ccc(-c2ccc(CNCCCNc3nsc4ccc(Br)cc34)cc2)cc1` [Compound 404, N^1-(5-bromobenzo[d]isothiazol-3-yl)-N^3-((4′-methoxybiphenyl-4-yl)methyl)propane-1,3-diamine], the IC50 is under 5 µM.
The value for `COc1ccc(-c2ccc(C(=O)NCCCNc3nsc4ccc(-c5ccccc5)cc34)cc2)cc1` [Compound 405, 4′-methoxy-N-(3-(5-phenylbenzo[d]isothiazol-3-ylamino)propyl)biphenyl-4-carboxamide] was under 5 µM.
Turning to `COc1ccc(-c2ccc(C(=O)NCCCNc3nsc4ccc(-c5ccc(OC)cc5)cc34)cc2)cc1` [Compound 406, 4′-methoxy-N-(3-(5-(4-methoxyphenyl)benzo[d]isothiazol-3-ylamino)propyl)biphenyl-4-carboxamide], the IC50 is under 5 µM.
In the case of `COc1ccc(-c2ccc(C(=O)NCCCNc3nsc4ccc(-c5cccc(OC)c5F)cc34)cc2)cc1` [Compound 407, N-(3-(5-(2-fluoro-3-methoxyphenyl)benzo[d]isothiazol-3-ylamino)propyl)-4′-methoxybiphenyl-4-carboxamide], the IC50 was under 5 µM.
With `COc1ccc(-c2ccc(C(=O)NCCCNc3nsc4ccc(-c5ccc(OC(C)C)cc5)cc34)cc2)cc1` [Compound 409, N-(3-(5-(4-isopropoxyphenyl)benzo[d]isothiazol-3-ylamino)propyl)-4′-methoxybiphenyl-4-carboxamide], the IC50 was under 5 µM.
Take `COc1ccc(-c2ccc(CNCCCNc3nsc4ccc(-c5ccc(OC)cc5)cc34)cc2)cc1` [Compound 410, N^1-((4′-methoxybiphenyl-4-yl)methyl)-N^3-(5-(4-methoxyphenyl)benzo[d]isothiazol-3-yl)propane-1,3-diamine]: the IC50 was under 5 µM.
As for `COc1ccc(-c2ccc(CNCCCNc3nsc4ccc(-c5cc(F)cc(F)c5)cc34)cc2)cc1` [Compound 411, N^1-(5-(3,5-difluorophenyl)benzo[d]isothiazol-3-yl)-N^3-((4′-methoxybiphenyl-4-yl)methyl)propane-1,3-diamine], the IC50 is under 5 µM.
The value for `Cn1c(C(=O)NCCNc2nsc3ccccc23)cc2ccccc21` [Compound 412, N-(2-(benzo[d]isothiazol-3-ylamino)ethyl)-1-methyl-1H-indole-2-carboxamide] was under 5 µM.
The value for `O=C(NCCNc1nsc2ccccc12)c1cc(-c2ccccc2)n[nH]1` [Compound 413, N-(2-(benzo[d]isothiazol-3-ylamino)ethyl)-3-phenyl-1H-pyrazole-5-carboxamide] was over 5 µM; that for `O=Cc1cccc(C(=O)NCCNc2nsc3ccccc23)c1` [Compound 414, N-(2-(benzo[d]isothiazol-3-ylamino)ethyl)-3-formylbenzamide] was over 5 µM.
In the case of `O=Cc1ccc(C(=O)NCCNc2nsc3ccccc23)cc1` [Compound 415, N-(2-(benzo[d]isothiazol-3-ylamino)ethyl)-4-formylbenzamide], the IC50 is over 5 µM.
As for `O=C(NCCNc1nsc2ccccc12)c1cccc(CO)c1` [Compound 416, N-(2-(benzo[d]isothiazol-3-ylamino)ethyl)-3-(hydroxymethyl)benzamide], the 50% inhibitory concentration (IC50) is over 5 µM.
In the case of `c1ccc2c(NCCNc3nsc4ccccc34)nsc2c1` [Compound 417, N^1,N^2-di(benzo[d]isothiazol-3-yl)ethane-1,2-diamine], the IC50 was over 5 µM.
`CCCNC(=O)c1ccc(C(=O)NCCNc2nsc3ccccc23)cc1` [Compound 418, N^1-(2-(benzo[d]isothiazol-3-ylamino)ethyl)-N^4-propylterephthalamide]: the IC50 was over 5 µM.
Turning to `O=C(NCCCNc1nsc2ccccc12)c1cccc(Br)n1` [Compound 419, N-(3-(benzo[d]isothiazol-3-ylamino)propyl)-6-bromopicolinamide], the IC50 was under 5 µM.
On to `O=C(NCCCNc1nsc2ccccc12)c1cccc(F)n1` [Compound 420, N-(3-(benzo[d]isothiazol-3-ylamino)propyl)-6-fluoropicolinamide], for which the IC50 is over 5 µM.
